Earlier results, collected in patent US20140363396A1, “ONCE DAILY TREATMENT OF HEPATITIS C WITH RIBAVIRIN AND TARIBAVIRIN” (priority 2012, published 2014).
Values belong to the compound of their own block, whether it stands above or below them.

Experiments:
[1] = compared with ribavirin
[2] = in vivo
[3] = molecular target: T1, HCV NS3/4A protease (Hepatitis C virus genotype 1a, UniProt P27958); conditions: R-diastereomer compared with telaprevir
T1 construct: NS3 consists of an N-terminal serine protease domain and a C-terminal helicase domain

[4] = in vivo; remark: listed apart in the source

T1 sequence (P27958 1027-1657 limits assumed): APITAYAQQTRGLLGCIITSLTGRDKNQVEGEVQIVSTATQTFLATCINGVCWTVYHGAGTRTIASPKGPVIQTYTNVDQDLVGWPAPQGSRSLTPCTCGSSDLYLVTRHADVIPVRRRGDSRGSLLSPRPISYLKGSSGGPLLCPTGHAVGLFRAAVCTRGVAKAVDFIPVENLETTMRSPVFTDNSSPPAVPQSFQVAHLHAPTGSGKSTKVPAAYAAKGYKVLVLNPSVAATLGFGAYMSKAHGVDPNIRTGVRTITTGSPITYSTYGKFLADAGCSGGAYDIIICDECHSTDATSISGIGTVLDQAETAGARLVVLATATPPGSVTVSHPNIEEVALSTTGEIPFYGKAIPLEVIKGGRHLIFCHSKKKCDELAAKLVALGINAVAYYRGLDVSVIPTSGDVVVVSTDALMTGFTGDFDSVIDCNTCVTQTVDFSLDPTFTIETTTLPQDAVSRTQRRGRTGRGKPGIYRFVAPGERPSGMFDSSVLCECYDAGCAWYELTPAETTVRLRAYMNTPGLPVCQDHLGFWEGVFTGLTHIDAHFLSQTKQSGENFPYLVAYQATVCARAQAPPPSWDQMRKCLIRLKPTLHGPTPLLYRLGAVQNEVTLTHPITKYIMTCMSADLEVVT
T1 sequence (P27958 1658-1711 partner limits assumed): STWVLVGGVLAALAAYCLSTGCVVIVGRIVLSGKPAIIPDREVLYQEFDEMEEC

SMILES: CC(C)(C)NC(=O)N[C@H](C(=O)N1C[C@H]2[C@@H]([C@H]1C(=O)NC(CC1CCC1)C(=O)C(N)=O)C2(C)C)C(C)(C)C (stereo partly drawn) [Boceprevir, (1R,5S)—N-[3-Amino-1-(cyclobutylmethyl)-2,3-dioxopropyl]-3-[2(S)-[[[(1,1-dimethylethyl)amino]carbonyl]amino]-3,3-dimethyl-1-oxobutyl]-6,6-dimethyl-3-azabicyclo[3.1.0]hexan-2(S)-carboxamide]
- solubility in methanol, ethanol and isopropanol (methanol, ethanol and isopropanol): freely soluble
- solubility in water: slightly soluble

SMILES: NC(=O)c1ncn([C@H]2O[C@@H](CO)[C@H](O)[C@@H]2O)n1 [Levovirin, 1-β-L-ribofuranosyl-1H-1,2,4-triazole-3-carboxamide]
- toxicity [1]: less toxic

SMILES: CCC[C@@H](NC(=O)[C@@H]1[C@H]2CCC[C@H]2CN1C(=O)[C@@H](NC(=O)[C@@H](NC(=O)c1cnccn1)C1CCCCC1)C(C)(C)C)C(=O)C(=O)NC1CC1 [VRT-127394]
- metabolite of telaprevir in plasma [2]: major metabolite in plasma
- fold less potent than telaprevir [3]: approximately 30 fold

More lines, now with the values ahead:

- solubility in anhydrous alcohol (anhydrous alcohol): slightly soluble
- solubility in water: freely soluble
SMILES: NC(=O)c1ncn([C@@H]2O[C@H](CO)[C@@H](O)[C@H]2O)n1 [Ribavirin, 1-β-D-ribofuranosyl-1H-1,2,4-triazole-3-carboxamide]

- anemia [4]: significantly less anemia
SMILES: N=C(N)c1ncn([C@@H]2O[C@H](CO)[C@@H](O)[C@H]2O)n1 [taribavirin, 1-β-D-ribofuranosyl-1H-1,2,4-triazole-3-carboxamidine]
